Patent publication US20140107100A1, “Benzoxazepines as Inhibitors of PI3K/mTOR and Methods of Their Use and Manufacture” (EXELIXIS, INC., priority 2010, published 2014)

Columns and labels:
mTOR/GbL/Raptor (mTORC1) = mTOR/GbL/Raptor (mTORC1) (Homo sapiens, UniProt P42345); test: mTOR/GbL/Raptor (mTORC1) ELISA assay, phosphorylation of 4E-BP1; assay type: biochemical; details: 0.2 nM mTORC1, 40 uM ATP, 50 nM NHis-tagged 4E-BP1, 120 minutes; read-out: IC50 in this assay (mTORC1 ELISA)
Summary of the method: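 Phospho-4E-BP1 was quantified by luminescent ELISA (anti-phospho-4E-BP1 IgG, HRP-tagged secondary) after capture of the His-tagged substrate on Ni-chelate plates.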

PI3Kα = PI3Kα (Homo sapiens, UniProt P42336); test: PI3K biochemical assay, ATP consumption by luciferase-luciferin chemiluminescence; details: 3 nM enzyme, 10 μM PIP2, approximately 2 h; read-out: IC50 in the PI3K-alpha assay
Experimental: P13Kα activity was measured as the percent of ATP consumed following the kinase reaction using luciferase-luciferin-coupled chemiluminescence. Reactions were conducted in 384-well white, medium binding microliter plates (Greiner). Kinase reactions were initiated by combining test compounds. ATP, substrate (PIP2), and kinase in a 20 μL volume in a buffer solution. The standard P13Kalpha assay buffer was composed 50 mM Tris, pH 7.5, 1 mM EGTA, 10 mM MgCl2, 1 mM DTT and 0.03% CHAPS. The standard assay concentrations for enzyme, ATP, and substrate were 3 nM, IpM, and 10 μM, respectively. The reaction mixture was incubated at ambient temperature for approximately 2 h. Following the kinase reaction, a 10 μL aliquot of luciferase-luciferin mix (Promega Kinase-Glo) was added and the chemiluminescence signal measured using a Victor2 or EnVision (Perkin Elmer). Total ATP consumption was limited to 40-60% and IC50 values of control compounds correlate well with literature references. Substituting P13Kα with P13Kβ, […], or PI3Kδ, the inhibitory activity of the compounds for the other isoforms of P13-K were measured. For the P13Kβ and P13Kβ assays, enzyme concentrations were 10 nM and 4 nM. respectively. For the P13γ assay, enzyme concentration was 40 nM, the incubation time was 1 h, and the concentration of MgCl2 in the assay buffer was 5 mM.

Chain of PI3Kα (P42336 whole entry): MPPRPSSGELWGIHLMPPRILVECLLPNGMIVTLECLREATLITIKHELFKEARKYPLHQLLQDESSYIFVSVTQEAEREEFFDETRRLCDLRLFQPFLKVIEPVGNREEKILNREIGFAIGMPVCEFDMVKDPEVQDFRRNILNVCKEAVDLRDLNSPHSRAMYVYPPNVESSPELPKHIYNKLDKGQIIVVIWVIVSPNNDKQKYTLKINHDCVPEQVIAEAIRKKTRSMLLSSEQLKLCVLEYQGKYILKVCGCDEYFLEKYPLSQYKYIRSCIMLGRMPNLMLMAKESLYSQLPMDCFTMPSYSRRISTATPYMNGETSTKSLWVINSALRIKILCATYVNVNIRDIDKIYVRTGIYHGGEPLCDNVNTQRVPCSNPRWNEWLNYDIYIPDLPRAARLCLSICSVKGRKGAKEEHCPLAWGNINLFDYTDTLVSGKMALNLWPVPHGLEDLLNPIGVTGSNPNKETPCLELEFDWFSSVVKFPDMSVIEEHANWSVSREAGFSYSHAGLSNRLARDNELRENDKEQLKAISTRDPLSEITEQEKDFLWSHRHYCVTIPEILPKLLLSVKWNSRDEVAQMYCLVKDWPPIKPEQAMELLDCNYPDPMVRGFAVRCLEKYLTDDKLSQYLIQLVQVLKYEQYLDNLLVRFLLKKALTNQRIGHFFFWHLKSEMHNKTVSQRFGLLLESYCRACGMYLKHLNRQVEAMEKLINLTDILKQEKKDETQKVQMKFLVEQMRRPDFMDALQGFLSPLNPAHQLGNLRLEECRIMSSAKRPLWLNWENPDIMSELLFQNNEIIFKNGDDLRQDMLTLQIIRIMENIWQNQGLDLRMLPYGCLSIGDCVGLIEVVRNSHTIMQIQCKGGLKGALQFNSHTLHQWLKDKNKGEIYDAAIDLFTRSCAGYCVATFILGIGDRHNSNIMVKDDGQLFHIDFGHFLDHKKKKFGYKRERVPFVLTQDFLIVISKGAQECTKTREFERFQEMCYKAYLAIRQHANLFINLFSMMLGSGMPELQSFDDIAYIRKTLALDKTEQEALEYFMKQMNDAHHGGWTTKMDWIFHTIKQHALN
Chain of PI3Kα (P27986 whole entry partner): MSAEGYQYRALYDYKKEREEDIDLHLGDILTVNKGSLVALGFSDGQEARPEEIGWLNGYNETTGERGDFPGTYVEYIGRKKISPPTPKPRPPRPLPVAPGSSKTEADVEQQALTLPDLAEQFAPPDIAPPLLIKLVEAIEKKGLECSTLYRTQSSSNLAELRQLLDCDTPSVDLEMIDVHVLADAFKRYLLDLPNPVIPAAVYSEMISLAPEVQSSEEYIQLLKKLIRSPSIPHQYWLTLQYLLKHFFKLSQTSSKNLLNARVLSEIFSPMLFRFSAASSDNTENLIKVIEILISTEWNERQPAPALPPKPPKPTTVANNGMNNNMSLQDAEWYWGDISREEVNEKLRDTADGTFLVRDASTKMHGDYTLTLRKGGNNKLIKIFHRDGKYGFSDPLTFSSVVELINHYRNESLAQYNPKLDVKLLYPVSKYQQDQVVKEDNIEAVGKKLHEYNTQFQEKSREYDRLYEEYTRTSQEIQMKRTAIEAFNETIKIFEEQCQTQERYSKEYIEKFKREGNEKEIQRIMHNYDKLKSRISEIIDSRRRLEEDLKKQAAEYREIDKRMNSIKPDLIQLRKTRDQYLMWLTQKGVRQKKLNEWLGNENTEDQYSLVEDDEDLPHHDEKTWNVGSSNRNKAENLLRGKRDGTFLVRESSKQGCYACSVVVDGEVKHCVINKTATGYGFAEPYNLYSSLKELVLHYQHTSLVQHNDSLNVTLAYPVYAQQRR

Row | Structure (SMILES) | IC50 (mTOR/GbL/Raptor (mTORC1)) | IC50 (PI3Kα)
1 | CCc1cc(-c2cnc3sc(N)nc3c2)cc2c1OCCN(c1nc(N)nc(C)c1C(C)C)C2 [Compound 17, 6-{4-[2-amino-6-methyl-5-(1-methylethyl)pyrimidin-4-yl]-9-ethyl-2,3,4,5-tetrahydro-1,4-benzoxazepin-7-yl}[1,3]thiazolo[5,4-b]pyridin-2-amine] | ≤ 100 nM | 500 to 2500 nM
2 | Cc1cc(-c2cnc(O)c(NS(C)(=O)=O)c2)cc2c1OCCN(c1nc(N)nc(C)c1C(C)C)C2 [Compound 19, N-(5-{4-[2-amino-6-methyl-5-(1-methylethyl)pyrimidin-4-yl]-9-methyl-2,3,4,5-tetrahydro-1,4-benzoxazepin-7-yl}-2-hydroxypyridin-3-yl)methanesulfonamide] | ≤ 100 nM | 500 to 2500 nM
3 | CCNC(=O)c1sc(N2CCOc3c(C)cc(-c4cnc(Cl)c(NS(C)(=O)=O)c4)cc3C2)nc1C(C)C [Compound 33, 2-[7-{6-chloro-5-[(methylsulfonyl)amino]pyridin-3-yl}-9-methyl-2,3-dihydro-1,4-benzoxazepin-4(5H)-yl]-N-ethyl-4-(1-methylethyl)-1,3-thiazole-5-carboxamide] | 100 to 500 nM | 500 to 2500 nM
4 | COC(=O)c1ccc(-c2cc(C)c3c(c2)CN(c2nc(N)nc(C)c2C(C)C)CCO3)cc1OC [Compound 68, methyl 4-{4-[2-amino-6-methyl-5-(1-methylethyl)pyrimidin-4-yl]-9-methyl-2,3,4,5-tetrahydro-1,4-benzoxazepin-7-yl}-2-(methyloxy)benzoate] | 100 to 500 nM | 500 to 2500 nM
5 | Cc1cc(-c2cccc(N)c2)cc2c1OCCN(c1nc(N)nc(C)c1C(C)C)C2 [Compound 69, 4-[7-(3-aminophenyl)-9-methyl-2,3-dihydro-1,4-benzoxazepin-4(5H)-yl]-6-methyl-5-(1-methylethyl)pyrimidin-2-amine] | 100 to 500 nM | 500 to 2500 nM
6 | C=Cc1cnc(N)nc1N1CCOc2c(C)cc(-c3cnc4sc(N)nc4c3)cc2C1 [Compound 89, 6-[4-(2-amino-5-ethenylpyrimidin-4-yl)-9-methyl-2,3,4,5-tetrahydro-1,4-benzoxazepin-7-yl][1,3]thiazolo[5,4-b]pyridin-2-amine] | ≤ 100 nM | ≤ 100 nM
7 | Cc1cc(-c2cn(C)nc2C)cc2c1OCCN(c1nc(N)nc(C)c1C(C)C)C2 [Compound 109, 4-[7-(1,3-dimethyl-1H-pyrazol-4-yl)-9-methyl-2,3-dihydro-1,4-benzoxazepin-4(5H)-yl]-6-methyl-5-(1-methylethyl)pyrimidin-2-amine] | 100 to 500 nM | 500 to 2500 nM
8 | Cc1cc(-c2cnn(C)c2C)cc2c1OCCN(c1nc(N)nc(C)c1C(C)C)C2 [Compound 110, 4-[7-(1,5-dimethyl-1H-pyrazol-4-yl)-9-methyl-2,3-dihydro-1,4-benzoxazepin-4(5H)-yl]-6-methyl-5-(1-methylethyl)pyrimidin-2-amine] | 100 to 500 nM | 500 to 2500 nM
9 | [2H]C1([2H])Oc2c(C)cc(-c3cnc4sc(N)nc4c3)cc2CN(c2nc(N)nc(C)c2C(C)C)C1([2H])[2H] [Compound 122, 6-{4-[2-amino-6-methyl-5-(1-methylethyl)pyrimidin-4-yl]-2,3,4,5-tetrahydro-1,4-benzoxazepin-7-yl}[1,3]thiazolo[5,4-b]pyridin-2-amine-d_4_] | ≤ 100 nM | ≤ 100 nM
10 | CCN(Cc1nc(C)c(C(C)C)c(N2CCOc3c(C)cc(-c4nnc(N)s4)cc3C2)n1)CC(F)F [Compound 170, 5-{4-[2-{[(2,2-difluoroethyl)(ethyl)amino]methyl}-6-methyl-5-(1-methylethyl)pyrimidin-4-yl]-9-methyl-2,3,4,5-tetrahydro-1,4-benzoxazepin-7-yl}-1,3,4-thiadiazol-2-amine] | 100 to 500 nM | –

More lines, now with the values ahead:

Row | IC50 (mTOR/GbL/Raptor (mTORC1)) | IC50 (PI3Kα) | Structure (SMILES)
11 | 100 to 500 nM | – | CCN(Cc1nc(C)c(C(C)C)c(N2CCOc3c(C)cc(-c4cnc5nc[nH]c5c4)cc3C2)n1)CC(F)F [Compound 171, N-ethyl-2,2-difluoro-N-({4-[7-(1H-imidazo[4,5-b]pyridin-6-yl)-9-methyl-2,3-dihydro-1,4-benzoxazepin-4(5H)-yl]-6-methyl-5-(1-methylethyl)pyrimidin-2-yl}methyl)ethanamine]
12 | ≤ 100 nM | – | Cc1nc(C)c(C(C)C)c(N2CCOc3c(C)cc(-c4nnc(N)s4)cc3C2)n1 [Compound 172, 5-{4-[2,6-dimethyl-5-(1-methylethyl)pyrimidin-4-yl]-9-methyl-2,3,4,5-tetrahydro-1,4-benzoxazepin-7-yl}-1,3,4-thiadiazol-2-amine]
13 | ≤ 100 nM | – | Cc1cc(-c2nnc(N)s2)cc2c1OCCN(c1ncnc(C)c1C(C)C)C2 [Compound 173, 5-{9-methyl-4-[6-methyl-5-(1-methylethyl)pyrimidin-4-yl]-2,3,4,5-tetrahydro-1,4-benzoxazepin-7-yl}-1,3,4-thiadiazol-2-amine]
14 | ≤ 100 nM | – | Cc1ncc(C)c(N2CCOc3c(C)cc(-c4nnc(N)s4)cc3C2)n1 [Compound 174, 5-[4-(2,5-dimethylpyrimidin-4-yl)-9-methyl-2,3,4,5-tetrahydro-1,4-benzoxazepin-7-yl]-1,3,4-thiadiazol-2-amine]
15 | ≤ 100 nM | – | Cc1ncc(C(C)C)c(N2CCOc3c(C)cc(-c4nnc(N)s4)cc3C2)n1 [Compound 175, 5-{9-methyl-4-[2-methyl-5-(1-methylethyl)pyrimidin-4-yl]-2,3,4,5-tetrahydro-1,4-benzoxazepin-7-yl}-1,3,4-thiadiazol-2-amine]
16 | ≤ 100 nM | – | Cc1cc(-c2nnc(N)s2)cc2c1OCCN(c1ncnc(C)c1C)C2 [Compound 176, 5-[4-(5,6-dimethylpyrimidin-4-yl)-9-methyl-2,3,4,5-tetrahydro-1,4-benzoxazepin-7-yl]-1,3,4-thiadiazol-2-amine]
17 | ≤ 100 nM | – | Cc1cc(-c2nnc(N)s2)cc2c1OCCN(c1ncncc1C(C)C)C2 [Compound 177, 5-{9-methyl-4-[5-(1-methylethyl)pyrimidin-4-yl]-2,3,4,5-tetrahydro-1,4-benzoxazepin-7-yl}-1,3,4-thiadiazol-2-amine]
18 | ≤ 100 nM | – | Cc1cnc(N)nc1N1CCOc2c(C)cc(-c3nnc(N)s3)cc2C1 [Compound 178, 4-[7-(5-amino-1,3,4-thiadiazol-2-yl)-9-methyl-2,3-dihydro-1,4-benzoxazepin-4(5H)-yl]-5-methylpyrimidin-2-amine]
19 | ≤ 100 nM | – | Cc1cc(-c2nnc(N)s2)cc2c1OCCN(c1nc(N)nc(C)c1C)C2 [Compound 179, 4-[7-(5-amino-1,3,4-thiadiazol-2-yl)-9-methyl-2,3-dihydro-1,4-benzoxazepin-4(5H)-yl]-5,6-dimethylpyrimidin-2-amine]
20 | ≤ 100 nM | – | Cc1cc(-c2nnc(N)s2)cc2c1OCCN(c1nc(N)ncc1C(C)C)C2 [Compound 180, 4-[7-(5-amino-1,3,4-thiadiazol-2-yl)-9-methyl-2,3-dihydro-1,4-benzoxazepin-4(5H)-yl]-5-(1-methylethyl)pyrimidin-2-amine]
21 | ≤ 100 nM | – | C=Cc1c(C)nc(N)nc1N1CCOc2c(C)cc(-c3nnc(N)s3)cc2C1 [Compound 181, 4-[7-(5-amino-1,3,4-thiadiazol-2-yl)-9-methyl-2,3-dihydro-1,4-benzoxazepin-4(5H)-yl]-5-ethenyl-6-methylpyrimidin-2-amine]
